Assay results from patent US20210069143A1, “LOW-ALCOHOL ANTIMICROBIAL COMPOSITION AND USE THEREOF” (Zurex Pharma, Inc., priority 2017, published 2021).

Legend:
[1] = Gamma radiation (25-40 kGy) and 5-month storage stability of composition components in HDPE bottles; type: physicochemical; conditions: for Concentration % Change, T = 0 vs. T = 5 Months / % Change (Unexposed vs. Exposed) / % LC, Exposed / % LC, Unexposed / % IPA, Exposed / % IPA, Unexposed: HDPE bottle
Description: An antimicrobial composition comprising isopropyl alcohol, citric acid, methyl paraben, propyl paraben, and methylene blue in HDPE bottles was exposed to 25-40 kGy radiation, and the amount of each component detected in the solution before and after radiation was tested. The testing was repeated after 5 months of storage. The results are presented in Tables 1 and 2, below, wherein “exposed” indicates the samples exposed to gamma radiation and “unexposed” indicates the samples that were not exposed to gamma radiation.

tested microorganisms = assay: Antimicrobial effect of components individually and together at various dilutions; type: cell-based; conditions: against most tested microorganisms
Description: The antimicrobial effect of various components of the composition of Example 1 were tested individually and together at various dilutions. The results are presented in FIG. 1A-1I, wherein shaded boxes indicate no significant response (<3 log10 reduction).

[2] = T = 0, exposed to 25-40 kGy gamma radiation
[3] = T = 0, not exposed to gamma radiation
[4] = T = 5 months, exposed to 25-40 kGy gamma radiation
[5] = T = 5 months, not exposed to gamma radiation

SMILES | change in amount of component upon gamma radiation ([1]; 25-40 kGy, HDPE bottles) | Concentration % Change, T = 0 vs. T = 5 Months ([1]; Exposed to gamma radiation) | % Change (Unexposed vs. Exposed) ([1]; T = 0) | % LC, Exposed [1, 2] | % LC, Unexposed [1, 3] | % Change (Unexposed vs. Exposed) ([1]; T = 5 months) | % LC, Exposed [1, 4] | % LC, Unexposed [1, 5] | Concentration % Change, T = 0 vs. T = 5 Months ([1]; Unexposed) | % IPA, Exposed [1, 2] | % IPA, Unexposed [1, 3] | % IPA, Exposed [1, 4] | % IPA, Unexposed [1, 5] | antimicrobial effect, alone (tested microorganisms; 25% v/v strength solution) | share of component in solution degraded by gamma radiation ([1]; 25-40 kGy, HDPE bottles, accompanied by a color change) | antimicrobial effect, alone (tested microorganisms; all tested concentrations)
O=C(O)CC(O)(CC(=O)O)C(=O)O [Citric Acid, citric acid] | negligible | −4.0% | 1.1% | 97.4 % LC | 96.3 % LC | 0.4% | 93.5 % LC | 93.1 % LC | −3.3% | – | – | – | – | – | – | –
CC(C)O [IPA, isopropyl alcohol] | negligible | 0.7% | 1.2% | – | – | −0.1% | – | – | 1.6% | 68.6% | 68.1% | 69.1% | 69.2% | little to no effect | – | –
CN(C)c1ccc2nc3ccc(=[N+](C)C)cc-3sc2c1 [Methylene Blue, methylene blue] | – | – | −57.4% | 44.9 % LC | 105.5 % LC | −49.4% | 47.3 % LC | 93.4 % LC | – | – | – | – | – | – | approximately 50% | little to no effect
COC(=O)c1ccc(O)cc1 [Methylparaben, methyl-para-hydroxybenzoate] | – | 0.7% | −0.4% | 74.5 % LC | 74.8 % LC | −0.3% | 75.0 % LC | 75.2 % LC | 0.5% | – | – | – | – | – | – | –
CCCOC(=O)c1ccc(O)cc1 [Propylparaben, propyl-para-hydroxybenzoate] | – | 0.4% | 0% | 74.9 % LC | 74.9 % LC | −0.1% | 75.2 % LC | 75.3 % LC | 0.5% | – | – | – | – | – | – | –
O=C(O)CC(O)(CC(=O)O)C(=O)O [citrate] | – | – | – | – | – | – | – | – | – | – | – | – | – | – | – | little to no effect
